# In ChEMBL document CHEMBL3885881, “DrugMatrix”:
# Organism: Rattus norvegicus
# Assay: DrugMatrix - Regimen: Daily Repeat
# Format: toxicity, organism-based, Sprague-Dawley
# Parameters: regimen Daily Repeat, gender Male, age 6-8 weeks
# Details: in vivo, iv, 0 mg/kg, dose level Control, vehicle 100 % SALINE; for ABSOLUTE BASOPHIL / ABSOLUTE EOSINOPHIL / ABSOLUTE LYMPHOCYTE / ABSOLUTE MONOCYTE / ABSOLUTE SEGMENTED NEUTROPHIL / BASOPHIL / EOSINOPHIL / ERYTHROCYTE COUNT / HEMATOCRIT / HEMOGLOBIN / LEUKOCYTE COUNT / LYMPHOCYTE / MEAN CORPUSCULAR HEMOGLOBIN / MEAN CORPUSCULAR HEMOGLOBIN CONCENTRATION / MEAN CORPUSCULAR VOLUME / MONOCYTE / NEUTROPHIL / NUCLEATED RED BLOOD CELLS / PLATELET COUNT: tissue Blood
# [1] = 72 h, tissue Plasma, time 3 day
# [2] = 120 h, tissue Plasma, time 5 day
smiles,measurement,setting,value
COc1cccc2c1C(=O)c1c(O)c3c(c(O)c1C2=O)C[C@@](O)(C(C)=O)C[C@@H]3O[C@H]1C[C@H](N)[C@H](O)[C@H](C)O1 [DAUNORUBICIN],ABSOLUTE BASOPHIL,"72 h, time 3 day",0 CELLS/uL
same,ABSOLUTE EOSINOPHIL,"72 h, time 3 day",21.67 CELLS/uL
same,ABSOLUTE LYMPHOCYTE,"72 h, time 3 day",10193.67 CELLS/uL
same,ABSOLUTE MONOCYTE,"72 h, time 3 day",165.83 CELLS/uL
same,ABSOLUTE SEGMENTED NEUTROPHIL,"72 h, time 3 day",702.17 CELLS/uL
same,BASOPHIL,"72 h, time 3 day",0%
same,EOSINOPHIL,"72 h, time 3 day",0.17%
same,ERYTHROCYTE COUNT,"72 h, time 3 day",5.39 x10E6/uL
same,HEMATOCRIT,"72 h, time 3 day",34.62%
same,HEMOGLOBIN,"72 h, time 3 day",13.8 G/DL
same,LEUKOCYTE COUNT,"72 h, time 3 day",11.08 x10E3/uL
same,LYMPHOCYTE,"72 h, time 3 day",91.83%
same,MEAN CORPUSCULAR HEMOGLOBIN,"72 h, time 3 day",25.68 pg
same,MEAN CORPUSCULAR HEMOGLOBIN CONCENTRATION,"72 h, time 3 day",39.9 G/DL
same,MEAN CORPUSCULAR VOLUME,"72 h, time 3 day",64.37 fL
same,MONOCYTE,"72 h, time 3 day",1.5%
same,NEUTROPHIL,"72 h, time 3 day",6.5%
same,NUCLEATED RED BLOOD CELLS,"72 h, time 3 day",0 /100WBC
same,PLATELET COUNT,"72 h, time 3 day",1202.83 x10E3/uL
same,ALANINE AMINOTRANSFERASE,[1],55.5 u/L
same,ALBUMIN,[1],4.22 G/DL
same,ALKALINE PHOSPHATASE,[1],406.83 u/L
same,ASPARTATE AMINOTRANSFERASE,[1],101.5 u/L
same,BLOOD UREA NITROGEN,[1],13.5 mg/dL
same,CARBON DIOXIDE,[1],30.33 mmol/L
same,CHLORIDE,[1],102.17 MEQ/L
same,CHOLESTEROL,[1],63.67 mg/dL
same,CREATINE PHOSPHOKINASE,[1],732.67 u/L
same,CREATININE,[1],0.2 mg/dL
same,GLUCOSE,[1],157 mg/dL
same,LIPASE,[1],10.83 u/L
same,PHOSPHORUS,[1],12.68 mg/dL
same,POTASSIUM,[1],5.67 MEQ/L
same,SODIUM,[1],144 MEQ/L
same,TOTAL BILIRUBIN,[1],0.15 mg/dL
same,TOTAL PROTEIN,[1],6.02 G/DL
same,URIC ACID,[1],1.55 mg/dL
same,ABSOLUTE BASOPHIL,"120 h, time 5 day",0 CELLS/uL
same,ABSOLUTE EOSINOPHIL,"120 h, time 5 day",17 CELLS/uL
same,ABSOLUTE LYMPHOCYTE,"120 h, time 5 day",11849.17 CELLS/uL
same,ABSOLUTE MONOCYTE,"120 h, time 5 day",69.83 CELLS/uL
same,ABSOLUTE SEGMENTED NEUTROPHIL,"120 h, time 5 day",730.67 CELLS/uL
same,BASOPHIL,"120 h, time 5 day",0%
same,EOSINOPHIL,"120 h, time 5 day",0.17%
same,ERYTHROCYTE COUNT,"120 h, time 5 day",5.93 x10E6/uL
same,HEMATOCRIT,"120 h, time 5 day",37.42%
same,HEMOGLOBIN,"120 h, time 5 day",14.4 G/DL
same,LEUKOCYTE COUNT,"120 h, time 5 day",12.67 x10E3/uL
same,LYMPHOCYTE,"120 h, time 5 day",93.17%
same,MEAN CORPUSCULAR HEMOGLOBIN,"120 h, time 5 day",24.32 pg
same,MEAN CORPUSCULAR HEMOGLOBIN CONCENTRATION,"120 h, time 5 day",38.5 G/DL
same,MEAN CORPUSCULAR VOLUME,"120 h, time 5 day",63.08 fL
same,MONOCYTE,"120 h, time 5 day",0.5%
same,NEUTROPHIL,"120 h, time 5 day",6.17%
same,NUCLEATED RED BLOOD CELLS,"120 h, time 5 day",0 /100WBC
same,PLATELET COUNT,"120 h, time 5 day",1170.5 x10E3/uL
same,ALANINE AMINOTRANSFERASE,[2],51 u/L
same,ALBUMIN,[2],4.12 G/DL
same,ALKALINE PHOSPHATASE,[2],392.67 u/L
same,ASPARTATE AMINOTRANSFERASE,[2],81.67 u/L
same,BLOOD UREA NITROGEN,[2],16.17 mg/dL
same,CARBON DIOXIDE,[2],30.67 mmol/L
same,CHLORIDE,[2],100.5 MEQ/L
same,CHOLESTEROL,[2],64.83 mg/dL
same,CREATINE PHOSPHOKINASE,[2],242.67 u/L
same,CREATININE,[2],0.2 mg/dL
same,GLUCOSE,[2],186.83 mg/dL
same,LIPASE,[2],10.83 u/L
same,PHOSPHORUS,[2],11.67 mg/dL
same,POTASSIUM,[2],5.51 MEQ/L
